In US20050203063A1, “Proteasome pathway inhibitors and related methods” (priority 2003, published 2005):
Entries after “also recorded” stand apart in the source; their conditions may differ.

What was measured:
[1] = tested on: cyclin-luciferase (cyc-luc) turnover, activated APC/C; test: cyc-luc turnover in mitotic Xenopus extracts (pre-treated with non-degradable cyclin B); assay type: biochemical; conditions: 200 μM compound; extracts in mitosis before addition of compound
Protocol: FIG. 1. Functional classification of inhibitors. Compounds that scored in the initial screen were reacquired as dry powders and retested in Xenopus extracts in 4 assays at 200 μM concentration (32) as described (6). […] (A) Compounds and cyclin-luciferase were added to interphase extracts, which were then induced to enter mitosis by addition of non-degradable cyclin B. Percent inhibition of cyc-luc turnover by each compound is coded according to the grayscale shown at the bottom of the figure; specific values are available in Table 1. (B) Extracts were pre-treated with non-degradable cyclin B to allow entry into mitosis prior to addition of test compound and reporter protein. (C) Interphase extracts were treated by addition of recombinant Cdh1 to activate cyc-luc turnover. (D) Interphase extracts were treated with recombinant axin to induce turnover of β-catenin-luciferase.
The “Cmpd” column corresponds to the numbers used in FIG. 1; “Class” refers to the class of inhibitor described in FIG. 1 and the text. Columns A-D show percent inhibition in the four assays described in FIG. 1. (A) Interphase extracts (B) Mitotic extracts (C) Interphase extracts stimulated with Cdh1 (D) Degradation of a β-catenin reporter protein in interphase extracts stimulated with recombinant axin. […] “ID#” refers to the identification number of the inhibitor obtained from the NCI (prefaced by NSC) or Chembridge (prefaced by C).
Dry compounds were redissolved at 20 mM concentration in DMSO, or a 50:50 water:DMSO mixture in certain cases. These compounds were then diluted ten-fold in XB and mixed thoroughly. For the assay in FIG. 1A, chilled interphase extract was mixed with cyclin BΔ90 (10 μg/ml) and cyc-luc (0.1 μg/ml) in bulk and then 27 μl of extract was pipetted to each well of a chilled 384-well plate. Three microliters of each compound (diluted in XB) was then added to each well, and then compounds mixed thoroughly. Plates were warmed to room temperature. After 70 minutes, 5 μl aliquots were transferred to another plate, and then 30 μl of luciferin reagent was added to each well and luminescence measured. Percent inhibition was calculated as described above. The reported values represent the average of three independent measurments. For the assay in FIG. 1B, interphase extracts were treated with 10 μg/cyclin B 90 for 50 minutes at room temperature and then chilled on ice. Cyc-luc was then added, and then 27 μl of extract was pipetted to each well of a chilled 384-well plate. Three microliters of each compound (diluted in XB) was then added to each well, and then compounds mixed thoroughly. Plates were warmed to room temperature. After 60 minutes, 5 μl aliquots were transferred to another plate, and then 30 μl of luciferin reagent was added to each well and luminescence measured. For the assay in FIG. 1C, recombinant Cdh1 (0.1 μg/ml) and cyc-luc were added to chilled interphase extracts. Extracts were then pipetted and compounds added as above. Plates were warmed to room temperature and incubated for three hours, following which luminescence was measured as above. For the assay in FIG. 1D, chilled interphase extracts received recombinant axin and beta-catenin-luciferase reporter as described (8). Extracts were aliquoted to chilled plates and compounds distributed as described above. Plates were warmed to room temperature, incubated for three hours, and luminescence measured.

26S proteasomes [2] = test: Degradation of UbSic1 by purified 26S proteasomes; assay type: biochemical, S. cerevisiae; conditions: concentrations as low as 10 μM
Protocol: (§1) FIG. 2. […] (A) Degradation of UbSic1. Purified 26S proteasomes were preincubated in the presence or absence of test compounds. UbSic1 was then added, and degradation assayed as described (6). Py mock refers to the pyridine solvent in which C23 was dissolved which was marginally inhibitory, unlike the 50% DMSO vehicle used for other test compounds. (B) Deubiquitination of UbSic1. […] UbSic1 was then added, and deubiquitination was assayed as described (6). (C) Titration curve with varying concentrations of C92 to determine half-maximal inhibition of deubiquitination. (D) C92 inhibits binding of UbSic1 to 26S proteasomes. Purified 26S proteasomes immobilized on anti-Flag beads were incubated with UbSic1 in the presence or absence of C92 as described (6). Following binding, beads were washed and analyzed by immunoblotting with anti-Sic1 polyclonal serum. (E) Binding of UbSic1 to the polyUb binding proteins Rpn10 and Rad23 is inhibited by C92. Recombinant Gst-Rpn10 and Gst-Rad23 (1 μg each) were immobilized on glutathione sepharose beads and then incubated with UbSic1 in the presence or absence of C92. Following binding, beads were washed and analyzed by immunoblotting. (F) C92 interacts with multiUb chains. Equivalent amounts (5 μg) of purified Gst, Gst-fusion protein or multiUb chains were incubated with C92 or C1 before being loaded on a 5% native polyacryamide gel. Electrophoresis was performed as described (33). (G) C92 and C59 interact specifically with K48-linked Ub on native gels. Ub (16 μM), K48-linked diUb (8 μM), or tetraUb chains (8 μM) were preincubated with a two fold-molar excess (monoUb and diUb), or equivalent amounts (tetraUb) of test compounds before being resolved on native gels as in (G). Tetra K29Ub, K48Ub, and K63Ub refer to tetraubiquitin chains wherein the ubiquitins are linked via K29, K48, or K63.
Sic1 is a Cdk inhibitor in Saccharomyces cerevisiae that must be degraded for cells to enter S-phase (9-11). […]

26S proteasomes [3] = test: Deubiquitination of UbSic1 by epoxomicin-treated purified 26S proteasomes; assay type: biochemical, S. cerevisiae; conditions: 100 μM test compound, 100 μM epoxomicin
Protocol: as §1
FIG. 5. […] Assays were performed and evaluated as summarized in the legend to FIG. 2B. The metal chelating reagent phenanthroline is designated as “P”, and “Py” refers to the pyridine solvent that is used as the solvent for C23. (B) Titration curve for C59. (C) Inhibition of binding of ubiquitin conjugates to Gst-Rpn10 by C92 and C59, but not other compounds. The experiment was performed as described for FIG. 2E.
26S proteasomes were purified from S. cerevisiae cells expressing a Flag-tagged proteasomal subunit (PRE1) essentially as described (28).
Reactions were processed as above.

Row | SMILES | percent inhibition of cyc-luc turnover, (B) Mitotic extracts [1] [%] | inhibitory effect on Sic1 (UbSic1) turnover (26S proteasomes [2]) | inhibition of deubiquitination of UbSic1 (in words) (26S proteasomes [3]) | inhibition of deubiquitination of UbSic1 (in words) (26S proteasomes [3]; listed as C23)
1 | O=C(Nc1ccc(/C=C/c2ccc(NC(=O)c3cc(S(=O)(=O)O)c4cccnc4c3O)cc2S(=O)(=O)O)c(S(=O)(=O)O)c1)c1cc(S(=O)(=O)O)c2cccnc2c1O [Compound 92] | 22 | strong inhibitory effect | completely blocked | –
2 | CC(=O)Nc1ccc(SSc2ccc(NC(C)=O)c3cccnc23)c2ncccc12 [Compound 23] | 100 | more modest effect | – | marginal inhibition; also recorded: inhibited marginally
3 | O=S(=O)(O)c1ccc2cc3c(cc2c1)NN(c1ccc(/C=C/c2ccc(N4Nc5cc6ccc(S(=O)(=O)O)cc6cc5N4)cc2S(=O)(=O)O)c(S(=O)(=O)O)c1)N3 [Compound 59] | 100 | strong inhibitory effect | Complete inhibition | –
